# ChEMBL document CHEMBL1201862, “PubChem BioAssay data set” (2004)
# Calls of active or inactive are those of the source.
# Columns and labels:
# [1] = target: T1, Corticotropin-releasing factor receptor 2/Corticotropin-releasing factor-binding protein (Homo sapiens, UniProt P24387+Q13324); test: Dose Response confirmation of uHTS hits for small molecule antagonists of the CRF-binding protein and CRF-R2 receptor complex.; assay type: functional; conditions: read-out: IC50_Mean
# T1 sequence (Q13324 whole entry): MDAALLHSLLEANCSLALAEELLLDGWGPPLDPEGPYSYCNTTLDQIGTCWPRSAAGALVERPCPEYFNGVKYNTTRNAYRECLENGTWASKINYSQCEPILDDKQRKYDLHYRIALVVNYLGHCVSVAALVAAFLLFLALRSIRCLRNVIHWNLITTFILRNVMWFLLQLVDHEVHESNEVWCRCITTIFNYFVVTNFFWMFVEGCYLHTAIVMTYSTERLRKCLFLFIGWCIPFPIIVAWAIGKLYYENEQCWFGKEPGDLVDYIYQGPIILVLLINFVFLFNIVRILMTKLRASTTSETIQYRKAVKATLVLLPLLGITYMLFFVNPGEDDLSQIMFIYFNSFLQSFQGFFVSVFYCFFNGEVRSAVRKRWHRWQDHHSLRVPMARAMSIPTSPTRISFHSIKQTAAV
# T1 sequence (P24387 whole entry): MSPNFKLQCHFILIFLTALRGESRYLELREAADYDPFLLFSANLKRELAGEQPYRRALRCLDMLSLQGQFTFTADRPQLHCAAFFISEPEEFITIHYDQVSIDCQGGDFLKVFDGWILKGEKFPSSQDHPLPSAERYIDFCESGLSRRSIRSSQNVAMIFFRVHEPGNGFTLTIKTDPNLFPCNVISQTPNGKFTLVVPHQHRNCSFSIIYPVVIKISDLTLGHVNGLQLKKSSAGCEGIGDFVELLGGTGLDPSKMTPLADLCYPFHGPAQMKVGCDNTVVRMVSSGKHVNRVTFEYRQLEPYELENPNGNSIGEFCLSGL
# [2] = target: T1, Corticotropin-releasing factor receptor 2/Corticotropin-releasing factor-binding protein; test: activators of CRF receptor 2 with binding protein – uHTS hits, confirmation (AID 602473); assay type: functional; conditions: read-out: EC50_Mean
# [3] = target: T2, Rac GTPase-activating protein 1 (Homo sapiens, UniProt Q9H0H5); test: MgcRacGAP GTPase-activating activity inhibitors, confirmation, biochemical, ADP Hunter fluorescence, primary and confirmatory (AID 624330); assay type: functional
# T2 sequence (Q9H0H5 whole entry): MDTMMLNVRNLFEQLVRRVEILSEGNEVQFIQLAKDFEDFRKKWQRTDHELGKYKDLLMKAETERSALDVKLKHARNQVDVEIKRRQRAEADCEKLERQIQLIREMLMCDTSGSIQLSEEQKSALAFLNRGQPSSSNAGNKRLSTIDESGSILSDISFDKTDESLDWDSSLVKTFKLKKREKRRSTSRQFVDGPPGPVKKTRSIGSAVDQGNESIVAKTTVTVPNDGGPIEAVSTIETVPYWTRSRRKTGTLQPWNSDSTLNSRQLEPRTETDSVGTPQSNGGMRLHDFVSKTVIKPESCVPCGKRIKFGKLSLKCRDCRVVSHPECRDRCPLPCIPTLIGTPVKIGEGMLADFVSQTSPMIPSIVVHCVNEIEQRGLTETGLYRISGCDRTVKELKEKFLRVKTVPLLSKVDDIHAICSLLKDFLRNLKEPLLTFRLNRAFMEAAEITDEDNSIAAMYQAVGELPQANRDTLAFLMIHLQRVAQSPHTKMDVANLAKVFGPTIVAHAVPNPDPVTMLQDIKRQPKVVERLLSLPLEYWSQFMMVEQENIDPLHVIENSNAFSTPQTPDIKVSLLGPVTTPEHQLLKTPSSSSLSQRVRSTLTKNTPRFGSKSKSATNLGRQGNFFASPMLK
# [4] = cytotoxicity in HEK-293T cells, dose response, cytotoxicity control for TCR NF-kB inhibitor project, luminescence, T-cell screen hits (AID 489026); assay type: functional, cell-based;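 further: cells exposed to compound about 14 hours before the viability readout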
# [5] = target: T3, Fatty acid synthase (Homo sapiens, UniProt P49327); test: FAS thioesterase domain inhibitors, dose response, biochemical, endpoint fluorescence intensity, uHTS hits (AID 624327); assay type: functional;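 further: fluorescence from hydrolysis of an O-methyl fluorescein acyl ester substrate by the enzyme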
# T3 sequence (P49327 whole entry, the tested form may be a part): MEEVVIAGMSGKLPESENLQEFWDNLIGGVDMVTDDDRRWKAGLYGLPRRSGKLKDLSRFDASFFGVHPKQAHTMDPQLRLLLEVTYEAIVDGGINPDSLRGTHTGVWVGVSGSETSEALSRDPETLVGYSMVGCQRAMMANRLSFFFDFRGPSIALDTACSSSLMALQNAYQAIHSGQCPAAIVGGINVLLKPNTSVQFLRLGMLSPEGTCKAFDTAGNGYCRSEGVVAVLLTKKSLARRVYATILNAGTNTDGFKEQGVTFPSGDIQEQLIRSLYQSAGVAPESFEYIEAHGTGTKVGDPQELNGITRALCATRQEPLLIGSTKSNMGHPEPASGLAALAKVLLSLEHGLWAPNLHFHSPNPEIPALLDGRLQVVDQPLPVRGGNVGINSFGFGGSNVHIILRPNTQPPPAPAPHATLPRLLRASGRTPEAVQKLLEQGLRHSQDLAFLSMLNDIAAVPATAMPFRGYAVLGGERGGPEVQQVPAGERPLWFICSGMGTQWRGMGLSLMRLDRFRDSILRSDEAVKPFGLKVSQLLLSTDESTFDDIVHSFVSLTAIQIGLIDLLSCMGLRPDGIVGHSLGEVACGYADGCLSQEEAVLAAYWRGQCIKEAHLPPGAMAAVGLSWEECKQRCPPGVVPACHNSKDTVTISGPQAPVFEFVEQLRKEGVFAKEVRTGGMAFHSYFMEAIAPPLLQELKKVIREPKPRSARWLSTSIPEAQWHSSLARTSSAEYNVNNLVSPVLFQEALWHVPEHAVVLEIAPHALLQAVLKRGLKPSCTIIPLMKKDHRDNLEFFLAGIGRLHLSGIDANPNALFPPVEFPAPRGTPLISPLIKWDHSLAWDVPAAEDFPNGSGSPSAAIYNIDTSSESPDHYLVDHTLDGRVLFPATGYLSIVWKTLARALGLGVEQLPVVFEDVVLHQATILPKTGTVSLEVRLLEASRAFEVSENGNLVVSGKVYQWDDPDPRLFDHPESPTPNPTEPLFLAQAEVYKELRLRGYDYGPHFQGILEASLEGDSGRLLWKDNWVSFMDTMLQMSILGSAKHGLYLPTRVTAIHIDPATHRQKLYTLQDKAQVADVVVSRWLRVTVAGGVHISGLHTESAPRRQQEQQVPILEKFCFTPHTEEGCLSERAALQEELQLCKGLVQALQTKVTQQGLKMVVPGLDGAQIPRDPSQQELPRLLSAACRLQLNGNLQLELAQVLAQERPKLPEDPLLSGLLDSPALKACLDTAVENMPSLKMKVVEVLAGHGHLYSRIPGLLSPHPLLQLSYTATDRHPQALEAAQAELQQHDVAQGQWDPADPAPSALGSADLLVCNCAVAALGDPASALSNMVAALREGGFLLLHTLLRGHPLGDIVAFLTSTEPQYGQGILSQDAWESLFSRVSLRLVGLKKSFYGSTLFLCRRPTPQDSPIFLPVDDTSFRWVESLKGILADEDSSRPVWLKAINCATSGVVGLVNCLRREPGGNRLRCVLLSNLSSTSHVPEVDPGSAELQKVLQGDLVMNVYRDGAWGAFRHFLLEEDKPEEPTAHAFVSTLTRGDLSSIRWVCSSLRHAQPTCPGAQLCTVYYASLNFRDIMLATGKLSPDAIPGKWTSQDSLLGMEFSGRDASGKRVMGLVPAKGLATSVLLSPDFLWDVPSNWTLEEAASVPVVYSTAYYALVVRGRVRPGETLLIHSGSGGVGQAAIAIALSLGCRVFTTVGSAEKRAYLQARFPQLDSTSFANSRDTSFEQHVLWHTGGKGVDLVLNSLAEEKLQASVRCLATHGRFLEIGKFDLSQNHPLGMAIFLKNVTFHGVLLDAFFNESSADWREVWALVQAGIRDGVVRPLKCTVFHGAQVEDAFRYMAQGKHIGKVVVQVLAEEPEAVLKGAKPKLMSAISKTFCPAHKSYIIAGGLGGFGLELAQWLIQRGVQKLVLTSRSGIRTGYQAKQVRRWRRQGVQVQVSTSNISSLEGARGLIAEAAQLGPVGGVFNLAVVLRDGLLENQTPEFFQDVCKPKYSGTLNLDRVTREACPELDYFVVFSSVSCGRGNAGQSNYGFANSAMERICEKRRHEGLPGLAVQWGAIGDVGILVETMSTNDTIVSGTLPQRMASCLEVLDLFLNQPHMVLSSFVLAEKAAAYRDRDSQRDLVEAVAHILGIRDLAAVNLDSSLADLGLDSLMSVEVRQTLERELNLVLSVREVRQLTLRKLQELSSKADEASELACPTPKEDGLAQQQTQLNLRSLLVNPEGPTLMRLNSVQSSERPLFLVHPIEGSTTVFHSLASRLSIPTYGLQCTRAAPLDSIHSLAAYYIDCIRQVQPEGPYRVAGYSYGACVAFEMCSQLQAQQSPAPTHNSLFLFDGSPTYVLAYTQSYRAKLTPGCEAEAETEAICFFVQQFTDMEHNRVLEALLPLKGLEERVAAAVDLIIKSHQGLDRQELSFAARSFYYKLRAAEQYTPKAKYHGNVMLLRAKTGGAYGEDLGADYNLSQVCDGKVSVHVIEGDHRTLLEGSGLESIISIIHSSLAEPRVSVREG
# [6] = target: T3, Fatty acid synthase; test: FAS thioesterase domain inhibitors, dose response, biochemical, kinetic fluorescence intensity (AID 624326); assay type: functional;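 further: rate of fluorescence rise from hydrolysis of a fluorogenic O-methyl fluorescein ester substrate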
# [7] = microbe, parasite or virus in culture; assay type: functional; conditions: Mycobacterium tuberculosis
# [8] = system: BJ; test: cytotoxicity toward BJ-TERT fibroblasts, dose response, cell-based, RAS-independent, luminescence (AID 1933); assay type: functional; conditions: Homo sapiens
# [9] = system: BJ; test: cells; assay type: functional, cell-based; conditions: Homo sapiens
# [10] = system: BJ; test: cytotoxicity toward BJ-TERT-LT-ST fibroblasts, dose response, cell-based, RAS-independent, luminescence (AID 1935); assay type: functional; conditions: Homo sapiens;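 further: BJ fibroblasts immortalized with TERT plus LT and ST oncogenes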
# [11] = cytotoxicity toward DRD oncogenic fibroblasts, dose response, cell-based, non-viral oncogenic, luminescence (AID 1934); assay type: functional; conditions: Homo sapiens
# [12] = NIH-3T3 fibroblast cytotoxicity, dose response, cytotoxicity control, cell-based, fluorescence, Alamar Blue, secondary assay (AID 2327); assay type: functional;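 further: NIH-3T3 mouse fibroblasts cultured with fluconazole at 8 µg/mL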
# [13] = inhibitors of firefly luciferase expression or activity, dose response, H4 neuroglioma cells, luminescence (AID 1990); assay type: functional, cell-based
# [14] = cells; assay type: functional, cell-based
# [15] = Luminescence Cell-Based Dose Response HTS to Identify Inhibitors of 5'UTR Stem-Loop Driven Prion Protein mRNA Translation in H4 Neuroglioblastoma Cells. [Related pubchem assays: 1827 (Project Summary), 1813 (Primary HTS)]; assay type: functional
# [16] = inhibitors of SNCA 5'UTR-driven reporter translation, confirmation, H4 neuroglioma cells, luminescence (AID 1988); assay type: functional, cell-based
# [17] = C. albicans growth with fluconazole, confirmation, fluorescence, retest (AID 2467); assay type: functional, cell-based
# [18] = cells; assay type: functional, cell-based; remark: listed apart in the source
# [19] = system: INS1; test: beta cell apoptosis inhibitors, cytokine rescue, dose response, luminescence, retest (AID 449756); assay type: functional, cell-based; conditions: Rattus norvegicus;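 further: cell death triggered by IL-1 beta plus TNF-alpha plus IFN-gamma mixture; protective hits raise ATP signal compared with cytokine alone wells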
# [20] = target: T4, Heat shock factor protein 1 (Mus musculus, UniProt P38532); test: HSF1 potentiators in luciferase reporter cells, confirmation, cell-based, NIH3T3, luminescence, dose retest (AID 435004); assay type: functional;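 further: stress induced by proteasome inhibitor MG132 added 30 min after compound; luciferase reporter driven by HSF1 response element in NIH3T3 cells; actives raise luminescence as potentiators of the MG132 stress response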
# T4 sequence (P38532 whole entry): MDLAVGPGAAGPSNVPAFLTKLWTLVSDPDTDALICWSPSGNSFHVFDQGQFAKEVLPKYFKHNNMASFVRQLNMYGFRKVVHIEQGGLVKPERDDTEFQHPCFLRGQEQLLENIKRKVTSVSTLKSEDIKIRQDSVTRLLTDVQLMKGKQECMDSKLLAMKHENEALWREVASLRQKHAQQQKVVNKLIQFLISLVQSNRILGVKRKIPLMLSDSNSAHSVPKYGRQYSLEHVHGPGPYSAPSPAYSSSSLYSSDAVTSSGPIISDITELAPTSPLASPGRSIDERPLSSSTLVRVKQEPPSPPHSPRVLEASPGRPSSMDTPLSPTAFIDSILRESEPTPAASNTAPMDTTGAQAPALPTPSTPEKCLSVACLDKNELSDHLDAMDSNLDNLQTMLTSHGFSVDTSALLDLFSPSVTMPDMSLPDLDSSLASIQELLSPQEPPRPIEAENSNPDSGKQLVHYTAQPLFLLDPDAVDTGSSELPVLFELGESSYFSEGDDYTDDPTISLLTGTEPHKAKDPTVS
# [21] = Shn3 3'UTR reporter inhibitors, dose response, cell-based, Clone20 osteoblasts, firefly luciferase, cherry-picked (AID 624132); assay type: functional;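 further: firefly luciferase luminescence from reporter carrying the Shn3 3'UTR in osteoblasts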
# [22] = HepG2 cell cytotoxicity, dose response, cytotoxicity control for Shn3 inhibitor project, CellTiter-Glo, cherry-picked (AID 624134); assay type: functional, cell-based
# [23] = control 3'UTR Renilla luciferase suppression, dose response, counter-screen for Shn3 inhibitor project, cell-based, Clone20-Shn3RL, cherry-picked (AID 624133); assay type: functional
# [24] = target: Cytochrome P450 2D6 (Homo sapiens, UniProt P10635);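 further: CYP2D6 member of a cytochrome P450 panel assay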
# Sequence of Cytochrome P450 2D6 (P10635 whole entry): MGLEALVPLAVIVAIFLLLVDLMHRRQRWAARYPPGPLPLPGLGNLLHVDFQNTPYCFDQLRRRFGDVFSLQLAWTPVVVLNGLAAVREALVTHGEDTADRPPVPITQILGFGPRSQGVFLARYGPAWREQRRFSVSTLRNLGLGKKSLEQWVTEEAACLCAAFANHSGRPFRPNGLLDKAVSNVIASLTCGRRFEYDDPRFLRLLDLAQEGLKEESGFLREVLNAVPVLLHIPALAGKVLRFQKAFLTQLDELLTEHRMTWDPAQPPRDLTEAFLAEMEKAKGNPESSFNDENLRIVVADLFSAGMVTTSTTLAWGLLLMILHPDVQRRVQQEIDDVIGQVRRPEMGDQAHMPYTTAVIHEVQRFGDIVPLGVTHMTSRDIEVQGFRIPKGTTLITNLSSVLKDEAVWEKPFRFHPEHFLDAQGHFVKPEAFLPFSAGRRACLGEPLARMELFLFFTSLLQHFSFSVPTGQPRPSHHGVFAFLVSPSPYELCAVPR
# [25] = target: T5, Cytochrome P450 1A2 (Homo sapiens, UniProt P05177);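 further: PubChem cytochrome P450 panel assay, CYP1A2 panel member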
# T5 sequence (P05177 whole entry): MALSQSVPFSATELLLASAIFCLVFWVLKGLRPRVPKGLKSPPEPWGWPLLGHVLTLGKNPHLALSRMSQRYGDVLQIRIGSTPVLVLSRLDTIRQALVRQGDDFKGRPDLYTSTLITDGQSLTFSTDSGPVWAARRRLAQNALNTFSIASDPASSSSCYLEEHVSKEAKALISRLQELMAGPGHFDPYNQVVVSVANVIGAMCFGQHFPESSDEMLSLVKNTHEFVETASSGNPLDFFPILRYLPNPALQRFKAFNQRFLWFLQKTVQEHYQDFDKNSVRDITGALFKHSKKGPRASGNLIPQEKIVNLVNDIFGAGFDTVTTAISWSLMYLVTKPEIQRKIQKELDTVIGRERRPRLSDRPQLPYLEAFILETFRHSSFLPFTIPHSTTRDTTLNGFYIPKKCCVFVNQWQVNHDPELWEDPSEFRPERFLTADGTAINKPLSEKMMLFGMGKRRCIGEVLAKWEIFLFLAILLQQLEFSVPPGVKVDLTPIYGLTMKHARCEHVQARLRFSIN
# [26] = target: Cytochrome P450 3A4 (Homo sapiens, UniProt P08684);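 further: CYP3A4 tested as one member of a cytochrome P450 panel screen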
# Sequence of Cytochrome P450 3A4 (P08684 whole entry): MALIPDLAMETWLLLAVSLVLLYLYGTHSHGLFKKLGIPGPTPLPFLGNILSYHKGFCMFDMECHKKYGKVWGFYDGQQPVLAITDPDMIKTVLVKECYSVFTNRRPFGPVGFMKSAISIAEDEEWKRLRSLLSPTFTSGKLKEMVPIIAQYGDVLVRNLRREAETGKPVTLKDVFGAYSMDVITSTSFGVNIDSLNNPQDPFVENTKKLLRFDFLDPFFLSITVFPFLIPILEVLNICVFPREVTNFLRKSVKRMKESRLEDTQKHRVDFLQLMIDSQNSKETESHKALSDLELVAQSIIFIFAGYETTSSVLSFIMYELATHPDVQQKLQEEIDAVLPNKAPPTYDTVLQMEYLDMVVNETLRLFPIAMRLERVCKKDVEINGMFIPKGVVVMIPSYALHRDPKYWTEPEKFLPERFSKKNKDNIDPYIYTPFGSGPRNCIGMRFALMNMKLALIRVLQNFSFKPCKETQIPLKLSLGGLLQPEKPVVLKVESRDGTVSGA
structure (smiles),measurement,setting,value
Cc1ccc2c(c1)C(C)CC(C)(C)N2C(=O)CN1CCN(C)CC1 (centres undefined),IC50,[1],> 47.1 µM (inactive)
same,EC50,[2],> 53 µM (inactive)
same,IC50,[3],73.3 µM (active)
CCN(CC)S(=O)(=O)c1ccc(NC(=O)c2ccc(CN3CCOCC3)cc2)cc1,IC50,[4],> 80 µM (inactive)
COc1ccc(C(=O)OCC(=O)NCCCc2ccccc2)cc1[N+](=O)[O-],IC50,[5],4.1 µM (active)
same,IC50,[6],4.84 µM (active)
CCCN(C(=O)CCOc1ccc(C(C)(C)C)cc1)c1c(N)n(Cc2ccccc2)c(=O)[nH]c1=O,CC50,[7],> 40 µM (active)
Cc1ccc(C(=O)c2cc([N+](=O)[O-])ccc2N2CCCCC2)cc1C,EC50,[8],1.69 µM (active)
same,EC50,[9],35.6 µM (active)
same,EC50,[10],1.33 µM (active)
same,EC50,[11],0.966 µM (active)
same,IC50,[4],> 80 µM (inactive)
C/C(=N\NC(=O)c1cc(-c2cccnc2)nc2ccccc12)c1ccc(O)cc1O,EC50,[12],4.94 µM (active)
same,EC50,[13],5.99 µM (active)
same,EC50,[14],10.9 µM (active)
same,EC50,[15],9.7 µM (active)
same,EC50,[16],8.88 µM (active)
same,EC50,[17],> 38 µM (not active)
same,EC50,[18],> 350 µM (not active)
same,AC50,[19],0.661 µM (active)
COC(=O)c1ccc(Oc2cc(C)nc(SC)n2)cc1,IC50,[4],> 80 µM (inactive)
O=C(NCCOc1ccccc1)c1cc([N+](=O)[O-])ccc1N1CCOCC1,IC50,[4],> 80 µM (inactive)
C=CCOC(=O)COc1ccc2c(C)c(CC)c(=O)oc2c1,IC50,[5],5.57 µM (active)
same,IC50,[6],3.08 µM (active)
CCc1ccc(NC(=O)CSc2nc3nnc(C)c-3c(N)n2-c2cccc(OC)c2)cc1,CC50,[7],22.6 µM (active)
same,EC50,[20],118 µM (active)
CC(=O)N1CCCc2cc(S(=O)(=O)N3CCCC(C(=O)N4CCN(c5cccc(Cl)c5)CC4)C3)ccc21 (centres undefined),AC50,[19],2.88 µM (active)
same,AC50,[21],1.9 µM (active)
same,AC50,[22],3.29 µM (active)
same,AC50,[23],1.13 µM (active)
CC(C)c1ccc(/C=N/NC(=O)CN(c2cccc(Cl)c2Cl)S(C)(=O)=O)cc1,IC50,[5],10.4 µM (active)
same,IC50,[6],7.36 µM (active)
same,AC50,[24],28.2 µM (inconclusive)
same,AC50,[25],25.1 µM (inconclusive)
same,AC50,[26],28.2 µM (inconclusive)
COc1cc(O)c2c(c1)COC2=O,IC50,[1],> 47.1 µM (inactive)
same,EC50,[2],> 53 µM (inactive)
CCCCC1(Cc2ccc([N+](=O)[O-])cc2)C(=O)N(c2ccccc2)N(c2ccccc2)C1=O,AC50,[19],3.67 µM (active)
same,AC50,[21],10.2 µM (active)
same,AC50,[22],66.8 µM (active)
same,AC50,[23],3.42 µM (active)
COc1ccc(NC(=O)CCN2CCCCCC2)cc1,IC50,[1],> 47.1 µM (inactive)
same,EC50,[2],> 53 µM (inactive)
O=C(CC1N=C2c3ccccc3N=C(SCc3ccccc3Cl)N2C1=O)NCc1ccco1 (centres undefined),IC50,[1],> 47.1 µM (inactive)
same,EC50,[2],> 53 µM (inactive)
COc1ccc(Nc2nc3cc(C)ccc3cc2C#N)c(OC)c1,IC50,[4],> 80 µM (inactive)
CCCCCN(CCCCC)C(=O)C(CCC(=O)O)NC(=O)c1ccc(Cl)c(Cl)c1 (centres undefined) [LORGLUMIDE SODIUM],IC50,[5],5.09 µM (active)
same,IC50,[6],5.31 µM (active)
CC(=O)N(Cc1ccco1)c1nc(C(=O)Nc2ccc(Cl)cc2)c(C)s1,IC50,[1],> 47.1 µM (inactive)
same,EC50,[2],> 53 µM (inactive)
CCOC(=O)C(C)Oc1cccc2c(=O)n(CC(=O)NCc3ccccc3)ccc12 (centres undefined),EC50,[8],0.772 µM (active)
same,EC50,[9],7.35 µM (active)
same,EC50,[10],0.785 µM (active)
same,EC50,[11],0.645 µM (active)
same,IC50,[4],> 80 µM (inactive)
CC(C)(C)c1cc(Br)c(O)c(N=Nc2ccc(S(=O)(=O)N3CCOCC3)cc2)c1,IC50,[5],3.8 µM (active)
same,IC50,[6],2.66 µM (active)
COc1ccc(C(=O)N/C(=C\c2cn(S(=O)(=O)N(C)C)c3ccccc23)C(=O)N2CCCC2)cc1,IC50,[5],1.47 µM (active)
same,IC50,[6],4.3 µM (active)
